Experimental data: patent US11155556B2, “Pyrimido-diazepinone kinase scaffold compounds and methods for treating PI3K-mediated disorders” (DANA-FARBER CANCER INSTITUTE, INC., priority 2016, dated 2021)

Key:
Aurora B = Aurora B (Homo sapiens (Human), UniProt Q96GD4); assay: Z'-LYTE kinase assay, Aurora B; format: biochemical; details: Z'LYTE assay format, ATP at Km
Experimental: (§1) The enzymatic activities against PI3K-α, PI3K-β, PI3K-γ and PI3K-δ were tested in ADAPTA assays. Activity against […] were tested in Z′-Lyte assays. All assays were performed with ATP concentrations of Km for each kinase. BRD4_1 binding was tested using an AlphaScreen assay. All protocols are available from Life Technologies.
as §1, with “against PI3K-α, PI3K-γ and” for “against PI3K-α, PI3K-β, PI3K-γ and”, “assay. All the protocols are” for “assay. All protocols are”

Aurora A = Aurora A (Homo sapiens (Human), UniProt O14965); assay: Z'-LYTE kinase assay, Aurora A; format: biochemical; details: Z'LYTE assay format, ATP at Km
Experimental: The enzymatic activities against PI3K-α, PI3K-β, PI3K-γ and PI3K-δ were tested in ADAPTA assays. […] All assays were performed with ATP concentrations of Km for each kinase. BRD4_1 binding was tested using an AlphaScreen assay. All protocols are available from Life Technologies.
The enzymatic activities against PI3K-α, PI3K-γ and PI3K-δ were tested in ADAPTA assays. […] All assays were performed with ATP concentrations of Km for each kinase. BRD4_1 binding was tested using an AlphaScreen assay. All the protocols are available from Life Technologies.

PI3K-δ = PI3K-δ (Homo sapiens (Human), UniProt O00329); assay: ADAPTA kinase assay, PI3K-δ; format: biochemical; details: ADAPTA assay format; for IC50: ATP at Km
Experimental: as §1
as §1, with “against PI3K-α, PI3K-γ and” for “against PI3K-α, PI3K-β, PI3K-γ and”, “assay. All the protocols are” for “assay. All protocols are”

PI3K-γ = PI3K-γ (Homo sapiens (Human), UniProt P48736); assay: ADAPTA kinase assay, PI3K-γ; format: biochemical; details: ADAPTA assay format; for IC50: ATP at Km
Experimental: as §1
as §1, with “against PI3K-α, PI3K-γ and” for “against PI3K-α, PI3K-β, PI3K-γ and”, “assay. All the protocols are” for “assay. All protocols are”

PI3K-β = PI3K-β (Homo sapiens (Human), UniProt P42338); assay: ADAPTA kinase assay, PI3K-β; format: biochemical; details: ADAPTA assay format, ATP at Km
Experimental: as §1
as §1, with “against PI3K-α, PI3K-γ and” for “against PI3K-α, PI3K-β, PI3K-γ and”, “assay. All the protocols are” for “assay. All protocols are”

PI3K-α = PI3K-α (Homo sapiens (Human), UniProt P42336); assay: ADAPTA kinase assay, PI3K-α; format: biochemical; details: ADAPTA assay format, ATP at Km
Experimental: as §1
as §1, with “against PI3K-α, PI3K-γ and” for “against PI3K-α, PI3K-β, PI3K-γ and”, “assay. All the protocols are” for “assay. All protocols are”

Jurkat cells = assay: CellTiter-Glo proliferation / cell viability assay, Jurkat; format: cell-based; details: Homo sapiens, 72 h, 3 days, average of three replicates
Experimental: (§2) Proliferation assays were conducted in Jurkat or MOLT4 cell lines using Cell Titer Glo as described in product manual.
(§3) Cell viability assays were performed using CellTiter-Glo (Promega). Cells were grown in RPMI-10% FBS medium. 600 cells per well were seeded in a 96-well plate and then treated with eight doses of each compound in 3-fold dilution steps ranging from 10 um to 0.0046 uM for 3 days. Wells were imaged using a luminometer. IC50 were determined using Prism software. Data was normalized to a dimethyl sulfoxide (DMSO)-only control.

Loucy cells = assay: CellTiter-Glo cell viability assay, Loucy; format: cell-based; details: 72 h, 3 days, average of three replicates
Experimental: as §3

Molm14 cells = assay: CellTiter-Glo cell viability assay, Molm14; format: cell-based; details: Homo sapiens, MOLM-14, 72 h, 3 days, average of three replicates
Experimental: as §3

MOLT4 cells = assay: CellTiter-Glo proliferation / cell viability assay, MOLT4; format: cell-based; details: Homo sapiens, MOLT-4, 72 h, 3 days, average of three replicates
Experimental: as §2, §3

[1] = system: patient-derived primary CLL cells; assay: CellTiter-Glo cell viability assay, patient-derived primary CLL cells; format: cell-based; details: Homo sapiens
Experimental: The CellTiter-Glo assay (Promega) was used to determine the viability of cells from chronic lymphocytic leukemia (CLL) patients at baseline (primary human patient derived CLL cells), upon IgM stimulation, and after drug treatment. IgM stimulation was conducted using AffiniPure F(ab′)2 Fragment Goat Anti-Human IgM (Jackson ImmunoResearch). Cell viability results after drug treatment are presented in FIG. 7A (IgM-stimulated cells) and FIG. 7B (PBS control).

[2] = system: PI3K-δ signaling (HMEC expressing CA-p110δ); assay: PI3K cellular signaling assay in isogenic HMEC lines (Western blot); format: cell-based; details: 10 nM concentration, FIG. 4C
Experimental: HMEC derivative cell lines were serum-starved for 3 hours, then treated with the indicated compounds at 0.01 μM, 0.1 μM, or 1 μM for 1 h. Cell lysates were prepared and subjected to Western blot assays with the indicated antibodies. Du, Duvelisib; Id, Idelalisib.
PI3K cellular signaling assays were performed as previously described (Reference 18).
HMEC derivative cells were cultured as described previously (Ni J, Liu Q, Xie S, et al. Functional characterization of an isoform-selective inhibitor of PI3K-p110beta as a potential anticancer agent. Cancer discovery. 2012; 2(5):425-433).
Western blot analysis was performed as previously described (Reference 1). Anti-phospho-AKT (Thr308) (#4056), anti-phospho-AKT (Ser473) (#4060), anti-AKT (#9272), anti-phospho-S6 ribosomal protein (Ser235/236) (#2211), anti-S6 ribosomal protein (#2217) antibodies were all from Cell Signaling Technology (Hanover, Mass.), and anti-α-tubulin antibody was from Sigma (Rockford, Ill.).

MV4:11 cells = assay: CellTiter-Glo cell viability assay, MV4:11; format: cell-based; details: Homo sapiens, MV4-11, 72 h, 3 days, average of three replicates
Experimental: as §3

Sequence of Aurora B (Q96GD4 whole entry): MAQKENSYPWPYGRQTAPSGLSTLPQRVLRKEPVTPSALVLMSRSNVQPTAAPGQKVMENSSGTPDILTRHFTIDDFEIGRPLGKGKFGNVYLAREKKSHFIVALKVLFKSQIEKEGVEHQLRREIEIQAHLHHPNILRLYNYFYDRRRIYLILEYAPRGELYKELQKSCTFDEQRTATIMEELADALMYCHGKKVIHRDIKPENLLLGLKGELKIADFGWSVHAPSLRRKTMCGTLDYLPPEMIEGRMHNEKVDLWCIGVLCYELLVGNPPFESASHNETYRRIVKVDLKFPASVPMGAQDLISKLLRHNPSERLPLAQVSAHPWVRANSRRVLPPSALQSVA
Sequence of Aurora A (O14965 whole entry): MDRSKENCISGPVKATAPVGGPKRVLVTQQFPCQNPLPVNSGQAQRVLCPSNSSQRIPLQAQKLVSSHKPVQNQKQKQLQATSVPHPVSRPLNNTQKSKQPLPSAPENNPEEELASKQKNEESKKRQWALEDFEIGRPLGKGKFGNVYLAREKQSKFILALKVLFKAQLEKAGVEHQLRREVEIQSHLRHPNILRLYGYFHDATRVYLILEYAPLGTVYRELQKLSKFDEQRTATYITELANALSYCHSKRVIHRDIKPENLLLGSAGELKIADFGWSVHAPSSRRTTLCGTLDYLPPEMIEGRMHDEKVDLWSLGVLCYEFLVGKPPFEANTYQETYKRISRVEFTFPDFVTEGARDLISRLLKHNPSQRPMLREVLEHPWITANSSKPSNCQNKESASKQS
Sequence of PI3K-γ (P48736 whole entry): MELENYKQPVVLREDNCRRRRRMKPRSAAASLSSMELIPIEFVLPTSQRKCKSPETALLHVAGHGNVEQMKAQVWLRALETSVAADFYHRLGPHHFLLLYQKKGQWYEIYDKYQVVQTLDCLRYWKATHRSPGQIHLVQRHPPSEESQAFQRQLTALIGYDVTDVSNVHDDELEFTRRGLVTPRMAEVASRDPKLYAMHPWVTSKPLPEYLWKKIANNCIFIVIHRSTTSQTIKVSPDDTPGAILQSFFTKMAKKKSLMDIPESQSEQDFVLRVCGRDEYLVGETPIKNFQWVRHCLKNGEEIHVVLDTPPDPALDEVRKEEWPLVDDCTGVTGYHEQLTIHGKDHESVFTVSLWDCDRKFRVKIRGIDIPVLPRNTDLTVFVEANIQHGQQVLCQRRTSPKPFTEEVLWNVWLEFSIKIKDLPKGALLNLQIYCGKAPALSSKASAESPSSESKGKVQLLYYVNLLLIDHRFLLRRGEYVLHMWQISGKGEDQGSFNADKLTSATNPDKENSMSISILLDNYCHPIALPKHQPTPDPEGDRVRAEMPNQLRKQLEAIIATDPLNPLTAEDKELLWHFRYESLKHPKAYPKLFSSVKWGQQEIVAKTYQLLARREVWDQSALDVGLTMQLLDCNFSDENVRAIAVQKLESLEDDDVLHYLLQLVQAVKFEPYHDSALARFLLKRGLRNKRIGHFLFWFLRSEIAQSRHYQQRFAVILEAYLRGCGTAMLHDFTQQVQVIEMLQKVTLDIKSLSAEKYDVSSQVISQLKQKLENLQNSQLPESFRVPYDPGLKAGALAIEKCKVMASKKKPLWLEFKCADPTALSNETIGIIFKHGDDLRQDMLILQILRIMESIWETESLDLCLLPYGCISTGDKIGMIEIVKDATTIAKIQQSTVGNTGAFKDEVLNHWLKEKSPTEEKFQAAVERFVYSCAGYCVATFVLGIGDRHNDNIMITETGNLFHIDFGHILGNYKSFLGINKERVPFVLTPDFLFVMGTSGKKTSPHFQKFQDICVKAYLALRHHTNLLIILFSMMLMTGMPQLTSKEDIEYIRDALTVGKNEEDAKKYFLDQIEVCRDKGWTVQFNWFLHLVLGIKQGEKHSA
Sequence of PI3K-δ (O00329 whole entry): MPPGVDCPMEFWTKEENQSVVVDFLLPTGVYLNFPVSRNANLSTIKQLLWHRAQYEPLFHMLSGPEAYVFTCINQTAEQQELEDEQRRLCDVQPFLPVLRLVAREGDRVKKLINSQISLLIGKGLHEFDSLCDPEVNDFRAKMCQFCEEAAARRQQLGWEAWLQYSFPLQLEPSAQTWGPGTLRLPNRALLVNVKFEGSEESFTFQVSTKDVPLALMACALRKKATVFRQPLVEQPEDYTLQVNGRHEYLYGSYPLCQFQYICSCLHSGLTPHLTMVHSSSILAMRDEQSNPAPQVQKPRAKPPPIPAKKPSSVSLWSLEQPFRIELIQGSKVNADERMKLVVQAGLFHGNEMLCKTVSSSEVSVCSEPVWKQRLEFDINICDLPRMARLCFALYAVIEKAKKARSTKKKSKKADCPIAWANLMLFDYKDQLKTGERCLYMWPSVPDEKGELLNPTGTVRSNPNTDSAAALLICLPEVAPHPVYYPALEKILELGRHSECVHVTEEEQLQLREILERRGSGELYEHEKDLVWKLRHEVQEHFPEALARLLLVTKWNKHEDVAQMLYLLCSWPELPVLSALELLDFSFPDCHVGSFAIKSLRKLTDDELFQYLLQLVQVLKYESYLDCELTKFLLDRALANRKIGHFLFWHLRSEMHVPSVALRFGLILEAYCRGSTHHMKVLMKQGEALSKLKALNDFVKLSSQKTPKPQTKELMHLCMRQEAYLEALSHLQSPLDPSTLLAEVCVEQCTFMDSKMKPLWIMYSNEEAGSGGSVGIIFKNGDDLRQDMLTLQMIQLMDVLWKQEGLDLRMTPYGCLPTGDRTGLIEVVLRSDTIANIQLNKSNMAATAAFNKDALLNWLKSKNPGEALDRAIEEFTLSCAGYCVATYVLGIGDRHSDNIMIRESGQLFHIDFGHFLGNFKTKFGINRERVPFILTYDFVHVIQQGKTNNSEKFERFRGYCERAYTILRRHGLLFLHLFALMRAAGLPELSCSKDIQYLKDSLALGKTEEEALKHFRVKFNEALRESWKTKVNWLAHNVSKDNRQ
Sequence of PI3K-δ (P27986 whole entry partner): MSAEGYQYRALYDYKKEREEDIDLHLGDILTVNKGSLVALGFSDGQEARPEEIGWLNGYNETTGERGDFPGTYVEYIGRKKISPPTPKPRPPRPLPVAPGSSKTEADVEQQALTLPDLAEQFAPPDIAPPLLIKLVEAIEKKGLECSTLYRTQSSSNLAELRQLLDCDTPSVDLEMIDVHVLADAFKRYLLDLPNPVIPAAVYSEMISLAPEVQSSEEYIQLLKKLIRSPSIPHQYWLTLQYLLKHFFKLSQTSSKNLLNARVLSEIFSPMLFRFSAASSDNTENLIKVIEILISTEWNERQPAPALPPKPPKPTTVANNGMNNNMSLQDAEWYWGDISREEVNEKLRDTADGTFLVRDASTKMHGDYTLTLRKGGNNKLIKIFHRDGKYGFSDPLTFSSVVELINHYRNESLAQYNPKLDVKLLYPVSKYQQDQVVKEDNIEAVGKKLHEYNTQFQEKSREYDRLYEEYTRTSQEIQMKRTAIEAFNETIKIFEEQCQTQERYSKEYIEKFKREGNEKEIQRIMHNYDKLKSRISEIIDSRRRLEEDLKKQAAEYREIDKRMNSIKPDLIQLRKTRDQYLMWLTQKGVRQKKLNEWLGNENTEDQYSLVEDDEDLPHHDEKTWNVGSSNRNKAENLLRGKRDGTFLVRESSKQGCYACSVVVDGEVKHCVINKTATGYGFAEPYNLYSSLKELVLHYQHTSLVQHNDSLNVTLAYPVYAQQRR
Sequence of PI3K-β (P42338 whole entry): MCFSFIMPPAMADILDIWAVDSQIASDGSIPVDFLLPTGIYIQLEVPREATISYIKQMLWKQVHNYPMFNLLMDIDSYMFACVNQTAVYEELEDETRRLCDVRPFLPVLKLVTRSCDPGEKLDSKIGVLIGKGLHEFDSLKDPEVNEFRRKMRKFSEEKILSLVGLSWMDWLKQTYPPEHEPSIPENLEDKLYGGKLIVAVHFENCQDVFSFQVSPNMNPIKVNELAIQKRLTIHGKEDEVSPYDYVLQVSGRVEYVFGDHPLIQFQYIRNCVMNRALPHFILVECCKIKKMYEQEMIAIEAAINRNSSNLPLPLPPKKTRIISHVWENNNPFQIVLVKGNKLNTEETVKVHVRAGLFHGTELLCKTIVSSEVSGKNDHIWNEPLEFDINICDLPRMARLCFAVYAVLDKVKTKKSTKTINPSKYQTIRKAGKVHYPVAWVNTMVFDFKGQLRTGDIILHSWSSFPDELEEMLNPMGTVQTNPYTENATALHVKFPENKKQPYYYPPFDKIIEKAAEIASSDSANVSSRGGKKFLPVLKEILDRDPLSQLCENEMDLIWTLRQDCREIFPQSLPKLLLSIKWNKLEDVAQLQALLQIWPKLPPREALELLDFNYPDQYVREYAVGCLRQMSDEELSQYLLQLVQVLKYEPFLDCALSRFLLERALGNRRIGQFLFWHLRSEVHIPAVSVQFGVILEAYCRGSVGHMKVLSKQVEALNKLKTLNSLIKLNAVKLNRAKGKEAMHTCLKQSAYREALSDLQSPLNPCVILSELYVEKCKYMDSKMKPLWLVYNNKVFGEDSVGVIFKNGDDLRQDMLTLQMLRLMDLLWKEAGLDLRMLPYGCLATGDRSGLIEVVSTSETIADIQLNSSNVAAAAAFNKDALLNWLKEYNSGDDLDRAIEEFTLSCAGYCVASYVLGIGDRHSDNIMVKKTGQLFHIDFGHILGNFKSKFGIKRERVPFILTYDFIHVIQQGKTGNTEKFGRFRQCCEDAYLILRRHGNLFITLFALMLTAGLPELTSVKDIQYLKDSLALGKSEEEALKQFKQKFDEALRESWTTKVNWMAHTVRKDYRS
Sequence of PI3K-β (P27986 whole entry partner): as the sequence (P27986 whole entry partner) above

| Compound | IC50 (Aurora B) [nM] | IC50 (Aurora A) [nM] | IC50 (PI3K-δ) [nM] | IC50 (PI3K-γ) [nM] | other results |
| --- | --- | --- | --- | --- | --- |
| C=CC(=O)Nc1ccc(NS(=O)(=O)c2cccc(Nc3ncc4c(n3)N(C)c3ccc(C)cc3C(=O)N4C)c2)cc1 [Compound 5, N-(4-((3-((5,8,11-trimethyl-6-oxo-6,11-dihydro-5H-benzo[e]pyrimido[5,4-b][1,4]diazepin-2-yl)amino)phenyl)sulfonamido)phenyl)acrylamide] | 290 | 272 | 15 | 29.3 | IC50 (PI3K-β): > 10000 nM; IC50 (PI3K-α): 728 nM |
| C=CC(=O)Nc1ccc(NS(=O)(=O)c2ccc(Nc3ncc4c(n3)N(C)c3ccc(C)cc3C(=O)N4C)cc2)cc1 [Compound 6, N-(4-((4-((5,8,11-trimethyl-6-oxo-6,11-dihydro-5H-benzo[e]pyrimido[5,4-b][1,4]diazepin-2-yl)amino)phenyl)sulfonamido)phenyl)acrylamide] | 80 | 49 | 306 | 96 | – |
| C=CC(=O)Nc1cccc(NS(=O)(=O)c2ccc(Nc3ncc4c(n3)N(C)c3ccc(C)cc3C(=O)N4C)cc2)c1 [Compound 8, N-(3-((4-((5,8,11-trimethyl-6-oxo-6,11-dihydro-5H-benzo[e]pyrimido[5,4-b][1,4]diazepin-2-yl)amino)phenyl)sulfonamido)phenyl)acrylamide] | – | – | 343 | 438 | – |
| Cc1ccc2c(c1)C(=O)N(C)c1cnc(Nc3ccc(S(N)(=O)=O)cc3)nc1N2C [Compound 14] | 4 | 16 | 20 | 30 | – |
| CN1C(=O)c2ccccc2N(C)c2nc(Nc3ccc(S(N)(=O)=O)cc3)ncc21 [Compound 16] | 13.3 | 4.8 | 14.5 | 49 | – |
| CN1C(=O)c2ccccc2N(C)c2nc(Nc3cccc(S(N)(=O)=O)c3)ncc21 [Compound 17] | 4 | 2 | 4 | 4 | – |
| Cc1cc(S(N)(=O)=O)ccc1Nc1ncc2c(n1)N(C)c1ccccc1C(=O)N2C [Compound 18] | 9360 | 4850 | 2380 | 822 | – |
| C[C@H](Nc1ncnc2nc[nH]c12)c1cc2cccc(Cl)c2c(=O)n1-c1ccccc1 [Duvelisib, reference compound] | – | – | – | – | IC50 (Jurkat cells): 1900 nM; IC50 (Loucy cells): 980 nM; IC50 (Molm14 cells): 1200 nM; potency in the PI3K-δ assay compared with clinical compounds (PI3K-δ; FIG. 4B): the most potent; IC50 (MOLT4 cells): 2300 nM; IC50 [1]: > 10000 nM; inhibition of PI3K-δ signaling (AKT and S6RP phosphorylation) [2]: the most potent PI3K-δ inhibitor; IC50 (MV4:11 cells): 4400 nM |
| CC[C@H](Nc1ncnc2[nH]cnc12)c1nc2cccc(F)c2c(=O)n1-c1ccccc1 [Idelalisib, reference compound] | – | – | – | – | potency in the PI3K-γ assay compared with clinical compounds (PI3K-γ; FIG. 4B): much less potent; IC50 [1]: > 10000 nM; inhibition of PI3K-δ signaling (AKT and S6RP phosphorylation) [2]: comparable inhibition of, and selectivity for, PI3K-δ signaling |

Further lines, with some results ahead:

| IC50 (Aurora B) [nM] | IC50 (Aurora A) [nM] | IC50 (PI3K-δ) [nM] | IC50 (PI3K-γ) [nM] | Compound | other results |
| --- | --- | --- | --- | --- | --- |
| 16 | 23 | 112 | 231 | C=CC(=O)N1CCN(S(=O)(=O)c2ccc(Nc3ncc4c(n3)N(C)c3ccc(C)cc3C(=O)N4C)cc2)CC1 [Compound 2, 2-((4-((4-acryloylpiperazin-1-yl)sulfonyl)phenyl)amino)-5,8,11-trimethyl-5,11-dihydro-6H-benzo[e]pyrimido[5,4-b][1,4]diazepin-6-one] | – |
| 631 | 355 | 122 | 20 | C=CC(=O)NC1CCN(S(=O)(=O)c2cccc(Nc3ncc4c(n3)N(C)c3ccc(C)cc3C(=O)N4C)c2)CC1 [Compound 3, N-(1-((3-((5,8,11-trimethyl-6-oxo-6,11-dihydro-5H-benzo[e]pyrimido[5,4-b][1,4]diazepin-2-yl)amino)phenyl)sulfonyl)piperidin-4-yl)acrylamide] | – |
| – | – | 48.6 | 123 | C=CC(=O)NC1CCN(S(=O)(=O)c2ccc(Nc3ncc4c(n3)N(C)c3ccc(C)cc3C(=O)N4C)cc2)CC1 [Compound 4, N-(1-((4-((5,8,11-trimethyl-6-oxo-6,11-dihydro-5H-benzo[e]pyrimido[5,4-b][1,4]diazepin-2-yl)amino)phenyl)sulfonyl)piperidin-4-yl)acrylamide] | – |
| 130 | 188 | 328 | 39 | C=CC(=O)Nc1cccc(NS(=O)(=O)c2cccc(Nc3ncc4c(n3)N(C)c3ccc(C)cc3C(=O)N4C)c2)c1 [Compound 7, N-(3-((3-((5,8,11-trimethyl-6-oxo-6,11-dihydro-5H-benzo[e]pyrimido[5,4-b][1,4]diazepin-2-yl)amino)phenyl)sulfonamido)phenyl)acrylamide] | – |
| – | – | 558 | 50.7 | Cc1ccc2c(c1)C(=O)N(C)c1cnc(Nc3cccc(S(=O)(=O)N4CCN(C)CC4)c3)nc1N2C [Compound 10] | – |
| – | – | 3250 | 2610 | Cc1ccc2c(c1)C(=O)N(C)c1cnc(Nc3ccc(S(=O)(=O)N4CCN(C)CC4)cc3)nc1N2C [Compound 11, 5,8,11-trimethyl-2-((4-((4-methylpiperazin-1-yl)sulfonyl)phenyl)amino)-5,11-dihydro-6H-benzo[e]pyrimido[5,4-b][1,4]diazepin-6-one] | – |
| – | – | 58 | 41 | Cc1ccc2c(c1)C(=O)N(C)c1cnc(Nc3ccc(S(=O)(=O)N4CCC(O)CC4)cc3)nc1N2C [Compound 13, 2-((4-((4-hydroxypiperidin-1-yl)sulfonyl)phenyl)amino)-5,8,11-trimethyl-5,11-dihydro-6H-benzo[e]pyrimido[5,4-b][1,4]diazepin-6-one] | – |
| – | – | 108 | 75.9 | Cc1ccc2c(c1)C(=O)N(C)c1cnc(Nc3cccc(S(N)(=O)=O)c3)nc1N2C [Compound 15, 3-((5,8,11-trimethyl-6-oxo-6,11-dihydro-5H-benzo[e]pyrimido[5,4-b][1,4]diazepin-2-yl)amino)benzenesulfonamide] | – |
